Test results reported in the Deep4Chem optical property database.

Test: solvent given as SMILES

Structure (SMILES): CCN(CC)c1ccc2nc3c4ccccc4c(=O)cc-3oc2c1
- fluorescence lifetime (in C1CCCCC1): 2.76 ns
- fluorescence lifetime (in C1COCCO1): 4.5 ns
- fluorescence lifetime (in CC1COC(=O)O1): 4.4 ns
- fluorescence lifetime (in CC#N): 4.7 ns
- fluorescence lifetime (in CC(C)=O): 4.66 ns
- fluorescence lifetime (in CC(C)O): 4.1 ns
- fluorescence lifetime (in CCCC#N): 4.54 ns
- fluorescence lifetime (in CCCCCCCCCCO): 4.19 ns
- fluorescence lifetime (in CCCCCO): 3.95 ns
- fluorescence lifetime (in CCCCO): 3.91 ns
- fluorescence lifetime (in CCCCOCCCC): 4.15 ns
- fluorescence lifetime (in CCCO): 3.8 ns
- fluorescence lifetime (in CCO): 3.65 ns
- fluorescence lifetime (in CCOC(C)=O): 4.53 ns
- fluorescence lifetime (in CCOCC): 4.45 ns
- fluorescence lifetime (in CN(C)C=O): 4.35 ns
- fluorescence lifetime (in CO): 2.8 ns
- fluorescence lifetime (in ClC(Cl)(Cl)Cl): 4.1 ns
- fluorescence lifetime (in ClCCl): 4.48 ns
- fluorescence lifetime (in OC(C(F)(F)F)C(F)(F)F): 0.94 ns
- fluorescence lifetime (in OCC(F)(F)F): 1.76 ns
- fluorescence lifetime (in OCC(O)CO): 1.95 ns
- fluorescence lifetime (in OCCO): 2.5 ns
- fluorescence lifetime (in [2H]OC): 4.2 ns
- fluorescence lifetime (in [2H]OCC): 4.56 ns

Structure (SMILES): Cc1ccc2c(c1)B(c1c(C(C)C)cc(C(C)C)cc1C(C)C)c1cc(C)cc3c1N2c1ccc(C)cc1B3c1c(C(C)C)cc(C(C)C)cc1C(C)C
- fluorescence lifetime (in Cc1ccccc1-c1cccc(Oc2cc3c4c(c2)Oc2cc(-c5ccccc5C)ccc2B4c2ccc(-c4ccccc4C)cc2O3)c1): 6.01 ns

Structure (SMILES): COc1ccc(-c2oc3cccc4c5c(-c6ccc(OC)c(OC)c6)/c(=N/S(=O)(=O)C(F)(F)F)oc6cccc(c2c34)c65)cc1OC
- fluorescence lifetime (in ClC(Cl)Cl): 4.4 ns

Structure (SMILES): F[B-]1(F)OC(c2ccc(C(F)(F)F)cc2)=Cc2cc(Cl)nc[n+]21
- fluorescence lifetime (in C1CCOC1): 0.13 ns
- fluorescence lifetime (in Cc1ccccc1): 0.21 ns

Structure (SMILES): COc1ccc(-c2nc3ccccc3oc2=O)cc1
- fluorescence lifetime (in c1ccccc1): 2.5 ns

Structure (SMILES): Fc1cccc(C2=Cc3ccc4ccccc4[n+]3[B-](F)(F)O2)c1
- fluorescence lifetime (in ClC(Cl)Cl): 1.11 ns

Structure (SMILES): CN(C)c1ccc2nc(-c3ccc(C(=O)OC[C@H](NC(=O)OC(C)(C)C)C(=O)OCc4ccccc4)cc3)sc2c1
- fluorescence lifetime (in C1CCCCC1): 2.4 ns

Structure (SMILES): c1ccc2c(-c3cc(-c4nccs4)nc(-c4nccs4)c3)cccc2c1
- fluorescence lifetime (in CC#N): 1.96 ns
- fluorescence lifetime (in CCCCCC): 2.24 ns
- fluorescence lifetime (in CO): 1.86 ns
- fluorescence lifetime (in ClC(Cl)Cl): 2.19 ns

Structure (SMILES): CN(C)c1ccccc1
- fluorescence lifetime (in C1CCCCC1): 3 ns

Structure (SMILES): CN1c2ccccc2CCc2ccccc21
- fluorescence lifetime (in CC#N): 0.63 ns
- fluorescence lifetime (in CO): 0.81 ns

Structure (SMILES): c1ccc(-c2nc(-c3ccccc3)c(-c3ccccc3)o2)cc1
- fluorescence lifetime (in Cc1ccccc1): 1.27 ns

Structure (SMILES): Cc1cc(=O)c2ccc(N)cc2o1
- fluorescence lifetime (in C1CCOC1): 3.22 ns
- fluorescence lifetime (in C1COCCO1): 0.48 ns
- fluorescence lifetime (in CC#N): 0.59 ns
- fluorescence lifetime (in CC(C)O): 4.56 ns
- fluorescence lifetime (in CCCCO): 4.01 ns
- fluorescence lifetime (in CCCO): 4.68 ns
- fluorescence lifetime (in CCOC(C)=O): 0.94 ns
- fluorescence lifetime (in CN(C)C=O): 3.37 ns
- fluorescence lifetime (in CO): 4.45 ns
- fluorescence lifetime (in CS(C)=O): 0.8 ns
- fluorescence lifetime (in ClC(Cl)Cl): 3.67 ns
- fluorescence lifetime (in O): 5.52 ns

Structure (SMILES): Cc1ccc(/C2=c3\cc/c(o3)=C(\c3ccc(C)cc3)c3ccc([nH]3)-c3ccc4n3[P-](=O)(=O)[N+]3=C(C=CC3=C4c3ccco3)c3ccc2[nH]3)cc1
- fluorescence lifetime (in ClC(Cl)Cl): 4.2 ns

Structure (SMILES): COCCOCCOCCOCC(COCCOCCOCCOC)Oc1cc(/C=C/c2ccc(/C=C(\C#N)c3ccc(C(F)(F)F)cc3)cc2)c(OC(COCCOCCOCCOC)COCCOCCOCCOC)cc1/C=C/c1ccc(/C=C(\C#N)c2ccc(C(F)(F)F)cc2)cc1
- fluorescence lifetime (in ClCCl): 1.6 ns

Structure (SMILES): N#CC1=c2c3cccc4cccc(c43)n2[B-](F)(F)[n+]2ccccc21
- fluorescence lifetime (in ClCCl): 8.7 ns

Structure (SMILES): c1ccc(N(c2ccccc2)c2ccc(-c3ccc4c(c3)C3(c5cc(-c6ccc(N(c7ccccc7)c7ccccc7)cc6)ccc5-4)c4ccccc4N(c4ccccc4)c4ccccc43)cc2)cc1
- fluorescence lifetime (in ClCCl): 1.2 ns

Structure (SMILES): C/C(=N\Nc1ccc(C#N)cc1)c1cccc(/C(C)=N/Nc2ccc(C#N)cc2)c1
- fluorescence lifetime (in CO): 1.27 ns

Structure (SMILES): CN(C)c1ccc(-c2c(/C=C3/C=Cc4ccccc4N3Cc3ccccc3)c(=O)c2=O)cc1
- fluorescence lifetime (in C1CCCCC1): 2.19 ns
- fluorescence lifetime (in Cc1ccccc1): 2.13 ns
- fluorescence lifetime (in ClCCl): 0.13 ns

Structure (SMILES): CCc1ccc(-c2nc(-c3ccc(-n4c5ccccc5c5ccccc54)cc3)cc(-c3ccc(-n4c5ccccc5c5ccccc54)cc3)n2)cc1
- fluorescence lifetime (in C1CCOC1): 3.72 ns
- fluorescence lifetime (in CN(C)C=O): 7.1 ns
- fluorescence lifetime (in Cc1ccccc1): 2.05 ns
- fluorescence lifetime (in ClC(Cl)Cl): 3.57 ns

Structure (SMILES): Cc1c2ccc3c(C)[n+](C)ccc3c2cc[n+]1C
- fluorescence lifetime (in CC#N): 5.7 ns

Structure (SMILES): Cc1cc(C)n2c1C=C1c3ccccc3C(c3ccc[nH]3)=[N+]1[B-]2(F)F
- fluorescence lifetime (in C1CCOC1): 7.36 ns
- fluorescence lifetime (in CC#N): 7.41 ns
- fluorescence lifetime (in CCCCCC): 7.93 ns
- fluorescence lifetime (in CO): 7.47 ns
- fluorescence lifetime (in Cc1ccccc1): 6.82 ns
- fluorescence lifetime (in ClCCl): 7.28 ns

Structure (SMILES): O=C1NC(=O)c2ccc(N3CCOCC3)c3cccc1c23
- fluorescence lifetime (in C1CCOC1): 8.38 ns
- fluorescence lifetime (in ClC(Cl)Cl): 8.65 ns
- fluorescence lifetime (in ClCCl): 8.38 ns

Structure (SMILES): Nc1ccc(/C=C/c2ccc3ccccc3c2)cc1
- fluorescence lifetime (in CC#N): 0.23 ns
- fluorescence lifetime (in CCCCCC): 0.2 ns

Structure (SMILES): CC[n+]1c(C=C2C(=O)C(C=C3N(C)c4ccccc4C3(C)C)=C2[O-])[se]c2ccccc21
- fluorescence lifetime (in CO): 0.41 ns
- fluorescence lifetime (in ClC(Cl)Cl): 2.44 ns

Structure (SMILES): C[Si](C)(C)c1ccc(-c2ccc(-c3ccc(-c4ccc(-c5ccc([Si](C)(C)C)s5)s4)c4nsnc34)s2)s1
- fluorescence lifetime (in C1CCOC1): 5.8 ns

Structure (SMILES): COc1cc(OC)c2c(c1)C(=O)c1cc(OC)cc(OC)c1-2
- fluorescence lifetime (in C1CCCCC1): 0.8 ns

Structure (SMILES): Fc1cccc(-[c+]2c3ccccc3sc3ccccc32)c1
- fluorescence lifetime (in CC#N): 1.3 ns

Structure (SMILES): CN(C)c1ccc(C2=Cc3ccccc3P2(=O)c2ccccc2)cc1 (configuration not stated)
- fluorescence lifetime (in ClCCl): 6.1 ns

Structure (SMILES): F[B-]1(F)n2c(cc3c4ccccc4oc32)C(c2ccccc2)=C2C=c3c(oc4ccccc34)=[N+]21
- fluorescence lifetime (in C1CCCCC1): 3.99 ns
- fluorescence lifetime (in CCOC(C)=O): 4.1 ns
- fluorescence lifetime (in CO): 4.02 ns

Structure (SMILES): Cc1cc(-c2ccc(C(C)(C)C)cc2)cc(C)[o+]1
- fluorescence lifetime (in CC#N): 8 ns
- fluorescence lifetime (in ClCCl): 2.1 ns
